This passage reports half-life, Drug metabolism and Papp results from ChEMBL document CHEMBL2396541, “Synthesis and in vitro evaluation of glycosyl derivatives of luteinizing hormone-releasing hormone (LHRH)” (Bioorg Med Chem, 2013).

A short description of series [1]: Half life in human. The series is classed as ADME, organism-based. Particulars: in vivo; call rule not given here.
The nature of series [2]: Half life in human Caco2 cell homogenates at 200 uM by LC-MS analysis. The conditions noted are these: Caco-2 cell homogenates. Type of series: ADME, cell-based.
In the next series the test system is Caco-2. The series is described as follows: Prodrug activation in human Caco2 cell homogenates assessed as LHRH release after 2 hrs. The series is classed as cell-based. The conditions noted are these: caco-2, 2 h.
A short description of series [3]: Apparent permeability across human Caco2 cells at 200 uM up to 120 mins by LC-MS analysis. The series is classed as ADME, cell-based. Particulars: Caco-2.
The nature of series [4]: Half life in human plasma. Type of series: ADME, cell-free.

SMILES strings stand for the structures.

In turn, `CC(C)C[C@H](NC(=O)[C@@H](Cc1c[nH]c2ccccc12)NC(=O)[C@H](Cc1ccc(O)cc1)NC(=O)[C@H](CO)NC(=O)[C@H](Cc1c[nH]c2ccccc12)NC(=O)[C@H](Cc1cnc[nH]1)NC(=O)[C@H](CCC(N)=O)NC(=O)CCC(=O)N[C@@H]1O[C@H](CO)[C@@H](O[C@@H]2O[C@H](CO)[C@H](O)[C@H](O)[C@H]2O)[C@H](O)[C@H]1O)C(=O)N[C@@H](CCCNC(=N)N)C(=O)N1CCC[C@H]1C(=O)NCC(N)=O` gave a half-life in series [1] of 3 min. Moreover, in series [2], the half-life at 200 µM came to 133 min.

On to `CC(C)C[C@H](NC(=O)CNC(=O)[C@H](Cc1ccc(O)cc1)NC(=O)[C@H](CO)NC(=O)[C@H](Cc1c[nH]c2ccccc12)NC(=O)[C@H](Cc1cnc[nH]1)NC(=O)[C@H](CCC(N)=O)NC(=O)CCC(=O)N[C@@H]1O[C@H](CO)[C@@H](O)[C@H](O)[C@H]1O)C(=O)N[C@@H](CCCNC(=N)N)C(=O)N1CCC[C@H]1C(=O)NCC(N)=O`, for which the Drug metabolism entry in the series with Caco-2 is “Not Active”. Further, the half-life at 200 µM in series [2] came out at 73.5 min. Moreover, the Papp at 2 h, 200 µM in series [3] was determined as 2.31 ×10⁻⁶ cm/s.

Take `CC(C)C[C@H](NC(=O)CNC(=O)[C@H](Cc1ccc(O)cc1)NC(=O)[C@H](CO)NC(=O)[C@H](Cc1c[nH]c2ccccc12)NC(=O)[C@H](Cc1cnc[nH]1)NC(=O)[C@H](CCC(N)=O)NC(=O)CCC(=O)N[C@@H]1O[C@H](CO)[C@H](O)[C@H](O)[C@H]1O)C(=O)N[C@@H](CCCNC(=N)N)C(=O)N1CCC[C@H]1C(=O)NCC(N)=O`: in the series with Caco-2, the Drug metabolism result is “Not Active”. Moreover, in series [2], the half-life at 200 µM is 92.2 min. Besides, in series [3], the Papp at 2 h, 200 µM amounted to 1.62 ×10⁻⁶ cm/s.

Regarding `CC(C)C[C@H](NC(=O)CNC(=O)[C@H](Cc1ccc(O)cc1)NC(=O)[C@H](CO)NC(=O)[C@H](Cc1c[nH]c2ccccc12)NC(=O)[C@H](Cc1cnc[nH]1)NC(=O)[C@H](CCC(N)=O)NC(=O)CCC(=O)N[C@@H]1O[C@H](CO)[C@@H](O[C@@H]2O[C@H](CO)[C@H](O)[C@H](O)[C@H]2O)[C@H](O)[C@H]1O)C(=O)N[C@@H](CCCNC(=N)N)C(=O)N1CCC[C@H]1C(=O)NCC(N)=O`, the Drug metabolism result in the series with Caco-2 is on record as “Not Active”. In addition, the half-life at 200 µM in series [2] was found to be 133 min. Also, the Papp at 2 h, 200 µM in series [3] amounted to 0.76 ×10⁻⁶ cm/s.

With `CC(C)C[C@H](NC(=O)CNC(=O)[C@H](Cc1ccc(O)cc1)NC(=O)[C@H](CO)NC(=O)[C@H](Cc1c[nH]c2ccccc12)NC(=O)[C@H](Cc1cnc[nH]1)NC(=O)[C@@H](N)CCC(=O)O)C(=O)N[C@@H](CCCNC(=N)N)C(=O)N1CCC[C@H]1C(=O)NCC(=O)N[C@@H]1O[C@H](C(N)=O)[C@@H](O)[C@H](O)[C@H]1O`, the half-life at 200 µM in series [2] was determined as 28.4 min.

In the case of `CC(C)C[C@H](NC(=O)CNC(=O)[C@H](Cc1ccc(O)cc1)NC(=O)[C@H](CO)NC(=O)[C@H](Cc1c[nH]c2ccccc12)NC(=O)[C@H](Cc1cnc[nH]1)NC(=O)[C@H](CCC(=O)O)NC(=O)CCC(=O)N[C@@H]1O[C@H](CO)[C@@H](O)[C@H](O)[C@H]1O)C(=O)N[C@@H](CCCNC(=N)N)C(=O)N1CCC[C@H]1C(=O)NCC(N)=O`, the Drug metabolism result in the series with Caco-2 is recorded as “Not Active”. Further, in series [2], the half-life at 200 µM came to 56.7 min. In series [3], the Papp at 2 h, 200 µM came out at 2.65 ×10⁻⁶ cm/s.

Take `CC(C)C[C@H](NC(=O)CNC(=O)[C@H](Cc1ccc(O)cc1)NC(=O)[C@H](CO)NC(=O)[C@H](Cc1c[nH]c2ccccc12)NC(=O)[C@H](Cc1cnc[nH]1)NC(=O)[C@H](CCC(=O)O)NC(=O)CCC(=O)N[C@@H]1O[C@H](CO)[C@H](O)[C@H](O)[C@H]1O)C(=O)N[C@@H](CCCNC(=N)N)C(=O)N1CCC[C@H]1C(=O)NCC(N)=O`: the Drug metabolism result with Caco-2 is “Not Active”. Besides, in series [2], the half-life at 200 µM worked out at 51 min. Also, the Papp at 2 h, 200 µM in series [3] was 1.08 ×10⁻⁶ cm/s.

With `CC(C)C[C@H](NC(=O)CNC(=O)[C@H](Cc1ccc(O)cc1)NC(=O)[C@H](CO)NC(=O)[C@H](Cc1c[nH]c2ccccc12)NC(=O)[C@H](Cc1cnc[nH]1)NC(=O)[C@H](CCC(=O)O)NC(=O)CCC(=O)N[C@@H]1O[C@H](CO)[C@@H](O[C@@H]2O[C@H](CO)[C@H](O)[C@H](O)[C@H]2O)[C@H](O)[C@H]1O)C(=O)N[C@@H](CCCNC(=N)N)C(=O)N1CCC[C@H]1C(=O)NCC(N)=O`, in the series with Caco-2, the Drug metabolism entry is “Not Active”. In series [2], this compound gave a half-life at 200 µM of 77 min. For the same compound, the Papp at 2 h, 200 µM in series [3] came to 2.87 ×10⁻⁶ cm/s.

Take `CC(C)C[C@H](NC(=O)CNC(=O)[C@H](Cc1ccc(O)cc1)NC(=O)[C@H](CO)NC(=O)[C@H](Cc1c[nH]c2ccccc12)NC(=O)[C@H](Cc1cnc[nH]1)NC(=O)[C@@H](N)CCC(=O)O)C(=O)N[C@@H](CCCNC(=N)N)C(=O)N1CCC[C@H]1C(=O)NCC(N)=O`: the half-life at 200 µM in series [2] came out at 30.4 min.

`CC(C)C[C@H](NC(=O)CNC(=O)[C@H](Cc1ccc(O)cc1)NC(=O)[C@H](CO)NC(=O)[C@H](Cc1c[nH]c2ccccc12)NC(=O)[C@H](Cc1cnc[nH]1)NC(=O)[C@@H]1CCC(=O)N1)C(=O)N[C@@H](CCCNC(=N)N)C(=O)N1CCC[C@H]1C(=O)NCC(N)=O` [GONADORELIN] came in with a half-life at 200 µM in series [2] of 32.6 min. For the same compound, in series [3], the Papp at 2 h, 200 µM is 0.398 ×10⁻⁶ cm/s. In addition, the half-life in series [4] was 3 min.

As for `CC(C)C[C@H](NC(=O)[C@@H](Cc1c[nH]c2ccccc12)NC(=O)[C@H](Cc1ccc(O)cc1)NC(=O)[C@H](CO)NC(=O)[C@H](Cc1c[nH]c2ccccc12)NC(=O)[C@H](Cc1c[nH]cn1)NC(=O)[C@@H]1CCC(=O)N1)C(=O)N[C@@H](CCCNC(=N)N)C(=O)N1CCC[C@H]1C(=O)NCC(N)=O` [TRIPTORELIN], the half-life at 200 µM in series [2] turned out to be 186 min.
